Measurements as given in PMC9692097, “Immunosuppressants Tacrolimus and Sirolimus revert the cardiac antifibrotic properties of p38-MAPK inhibition in 3D-multicellular human iPSC-heart organoids” (Frontiers in Cell and Developmental Biology, 2022).

How the values were obtained:
[1] = Cytotoxic assay in cardiac fibroblasts (crystal violet, 96 h); format: cell-based; conditions: human, human ventricular cardiac fibroblasts (NHCF-V), NHCF-V cell line, read-out: IC50 (cytotoxicity, CF viability)
Experimental: SB202190, Tacrolimus, and Sirolimus were freshly and individually prepared in DMSO for each individual experiment. Cardiac fibroblasts were seeded individually in 96-well plates (5,000 cells per well). The treatment effectiveness was assayed after applying reducing concentrations in a 1:2 fixed ratio to cycling cells in the exponential phase. All treatments were assessed within reducing doses of SB202190, Tacrolimus, or Sirolimus in monotherapy or combination in fixed proportions a day after the seeding. The proliferation viability was determined by crystal violet after 96 h. Cytotoxicity profiles were measured by absorbance at 595 nm using a microplate reader; then, IC50 values were estimated using GraphPad Prism 7 software.

[2] = system: iPSC-derived human heart organoids (hHOs); test: Cardiotoxicity MTT assay in iPSC-derived human heart organoids (96 h); format: cell-based; conditions: hHOs day 15, MTT, read-out: IC50 (hHO cellular viability)
Experimental: SB202190, Tacrolimus, and Sirolimus were prepared alone or in combinations mixed in DMSO for each experiment. hHOs were differentiated and seeded separately in low-binding 96-w plates. The effectiveness of the treatment was measured after the usage of decreasing concentrations in a 1:2 ratio to day 15 of developing heart organoids. All treatments were applied by reducing dosages of SB202190, Tacrolimus, or Sirolimus in monotherapy or combination. The proliferation capacity as a functional assay was determined using an MTT assay after 96 h (4 days). Cytotoxicity profiling was drafted by obtaining absorbance metrics at 595 nm using a particular microplate reader; then, IC50 values were calculated using GraphPad Prism 7.

[3] = system: hHO spontaneous beating; test: Organoid beating evaluation (beating count vs untreated organoid); format: cell-based, human; conditions: hHOs, 96 h
Description: For organoid beating evaluation, we measured the beating count at 10 s intervals and then compared it to the beating count of the untreated organoid for each case in biological triplicates.

[4] = system: COL1A1; test: COL1A1 expression in NHCF-V cardiac fibroblasts (western blot, immunocytochemistry); format: cell-based, human; conditions: for COL1A1 protein expression: 5 ng/ml TGF-β1 for 24 h, SB202190 10 μM, TAC 10 μM, Sirolimus 200 nM
Experimental: Cells were fixed by 4% PFA treatment for 15 min and stored in PBS at 4°C. Blocking was performed for 30–45 min in a blocking buffer containing 1% BSA, 0.5% Triton X-100 and 0.1 M glycine in PBS. After washing three times with PBS, primary antibody anti-Collagen I (1:200, ab34710, Abcam) was added to the blocking buffer (w/o glycine) and incubated overnight at 4°C. The next day, cells were washed three times with PBS, and secondary antibody donkey anti-rabbit Alexa Fluro 594 (1:1000, A21207, Invitrogen) was added in 1% BSA-PBS for 2 h at RT. After washing three times with PBS, 1:10,000 Hoechst 33342 was added for nuclear counterstaining. Images were taken with Keyence.
After 3 days of treatment on unstimulated CFs, we treated cells with 5 ng/ml of TGF-β1 in combination with the inhibitors for another 24 h to recapitulate pathological conditions of heart disease and induced a forced expression of ECMs, with a particular focus on COL1A1 as a major component of the Collagen type I.

[5] = system: mTORC1 downstream targets p4E-BP1 and pS6K; test: Western blot for pathway targets in NHCF-V; format: cell-based, human; conditions: 200 nM
Experimental: (§1) Cells were lysed in M-PER Mammalian Protein Extraction Reagent (78501, Thermo Scientific) buffer, and hHOs were lysed in T-PER Tissue Protein Extraction Reagent (78510, Thermo Scientific). The amount of protein was determined by Bradford assay using BSA as a standard. The primary antibodies were purchased from commercial sources as follows: anti-phospho-S6 Ribosomal Protein (1:1000, 5364, CST); anti-phospho-4E-BP1 (1:1000, 2855, CST); anti-4E-BP1 (1:1000, 9644, CST); anti-phospho-p38 (1:1000, 4631, CST); anti-p38 (1:1000, 9212, CST); anti-phospho-AKT (1:1000, 9271, CST); anti-Collagen I (1:1000, ab34710, abcam); anti-IL-11 (1:1000, ab76589, abcam); anti-β-actin (1:1000, A5441, Sigma). The secondary antibodies used are as follows: goat anti-rabbit IgG (HRP) (1:5000, sc-2054, Santa cruz), and anti-mouse IgG (HRP) (1:5000, 7076, CST).

[6] = system: COL1A1; test: COL1A1 expression in TGF-β1 stimulated hHOs (western blot, immunocytochemistry); format: cell-based, human; conditions: 5 ng/ml TGF-β1 for 24 h, SB202190 10 μM, TAC 10 μM, Sirolimus 200 nM
Experimental: Immunofluorescence staining of hHOs was conducted as previously described. hHOs were fixed by 4% PFA solution for 45–60 min at room temperature and incubated in blocking/permeabilization solution containing 10% normal donkey serum (Abcam), 0.5% Triton X-100 (nacalai tesque) and 0.5% BSA (nacalai tesque) at 4°C overnight. Subsequently, hHOs were stained with primary and secondary antibodies in PBS containing 1% normal donkey serum, 0.5% Triton X-100 and 0.5% BSA, respectively. Nuclei were stained with Hoechst 33342 (1:1000) before mounting. A confocal laser scanning microscope (Olympus FV3000) was used for fluorescent observation. Primary antibodies used are listed as follows: anti-Vimentin (1:200, ab11256, Abcam); anti-Collagen I (1:200, ab34710, Abcam); anti-WT1 (1:200, ab89901, Abcam); anti-ZO-1 (1:200, 33-9100, Invitrogen); anti-CD31/PECAM1 (1:50, ab28364, Abcam); anti-Cardiac Troponin T (1:200, ab8295, Abcam); anti-NFAT2 (1:200, ab25916, Abcam); anti-CD90/THY1 (1:200, ab133350, Abcam). […]
Cells were lysed in M-PER Mammalian Protein Extraction Reagent (78501, Thermo Scientific) buffer, and hHOs were lysed in T-PER Tissue Protein Extraction Reagent (78510, Thermo Scientific). The amount of protein was determined by Bradford assay using BSA as a standard. […]

[7] = system: IL-11 and phospho-p38; test: Western blot for IL-11 and phospho-p38 in TGF-β1 stimulated hHOs; format: cell-based, human
Experimental: as §1

[8] = system: RAS; design: method as in earlier work; conditions: RAS antagonist, ref Reif et al., 1999, Katzav et al., 2001, Clarke et al., 2003, 2004, Kafri et al., 2005, Nevo et al., 2011, Rokni et al., 2022; cited from earlier work

Row | safe dosages preserving average beating rates compared to untreated organoids (from ... downwards) [3] | SMILES | IC50 at 96 h [1] | IC50 [2] | COL1A1 protein expression [4] | inhibition of mTORC1 downstream targets p4E-BP1 and pS6K [5] | TGF-β1 driven COL1A1 expression / ECM depositions [6] | levels of IL-11 and phospho-p38 [7] | COL1A1 levels in TGF-β1 unstimulated condition ([4]; unstimulated, western blot) | inflammation and fibrosis in animal models [8]
1 | ≤ 2.5 µM | CO[C@H]1C[C@@H]2CC[C@@H](C)[C@@](O)(O2)C(=O)C(=O)N2CCCC[C@H]2C(=O)O[C@H]([C@H](C)C[C@@H]2CC[C@@H](O)[C@H](OC)C2)CC(=O)[C@H](C)/C=C(\C)[C@@H](O)[C@@H](OC)C(=O)[C@H](C)C[C@H](C)/C=C/C=C/C=C/1C [Sirolimus] | 3.54 ± 0.2 µM | 5.01 ± 0.4 µM | independent effect in reducing COL1A1 protein expression | inhibit the mTORC1 downstream targets p4E-BP1 and pS6K | this phenotype is lost in heart organoids | rescued levels of IL-11 and phospho-p38 |  | 
2 | ≤ 12 µM | C=CC[C@@H]1/C=C(\C)C[C@H](C)C[C@H](OC)[C@H]2O[C@@](O)(C(=O)C(=O)N3CCCC[C@H]3C(=O)O[C@H](/C(C)=C/[C@@H]3CC[C@@H](O)[C@H](OC)C3)[C@H](C)[C@@H](O)CC1=O)[C@H](C)C[C@@H]2OC [Tacrolimus] | 12.6 µM | 19.9 µM | no effect |  |  |  | mildly increase COL1A1 levels | 
3 |  | CC(C)=CCC/C(C)=C/CC/C(C)=C/CSc1ccccc1C(=O)O [FTS, Farnesythiosalicylic acid] |  |  |  |  |  |  |  | decreasing inflammation and fibrosis in animal models
4 | ≤ 100 µM | Oc1ccc(-c2nc(-c3ccncc3)c(-c3ccc(F)cc3)[nH]2)cc1 [SB202190] | 13.9 µM | 72.4 µM | independent effect in reducing COL1A1 protein expression |  | effectively reduced TGF-β1 driven COL1A1 expression |  |  | 
